Data published in ChEMBL document CHEMBL5321251, “Visible light-activated prodrug system with a novel heavy-atom-free photosensitizer” (Bioorg Med Chem Lett, 2023).
The source made the active and inactive calls. No cut-off for these calls is given here.

Legend:
HeLa [1] = test: Cytotoxicity against human HeLa cells assessed as inhibition of cell growth pre-treated with compound for 3 hrs followed by 620/25 nm red light irradiation for 30 mins measured after 72 hrs by CCK-8 assay; format: functional, cell-based; settings: for IC50: light or radiation study
[2] = Photoactivation of the compound assessed as photocleavage in the presence of 620/25 nm red light irradiation measured after 30 mins by LC-MS analysis; settings: 0.5 h
[3] = Photoactivation of the compound assessed as photocleavage in the absence of 620/25 nm red light irradiation measured after 2 hrs by LC-MS analysis
[4] = Photoactivation of the compound assessed as photocleavage in the presence of 620/25 nm red light irradiation measured after 2 hrs by LC-MS analysis
[5] = Photoactivation of the compound assessed as photocleavage in the presence of 520/25 nm green light irradiation by LC-MS analysis
HeLa [6] = test: Cytotoxicity against human HeLa cells assessed as inhibition of cell growth pre-treated with compound for 3 hrs measured after 72 hrs in dark condition by CCK-8 assay; format: functional, cell-based; settings: time 75.0 hrs
[7] = Photoactivation of the compound assessed as photocleavage in the presence of 620/25 nm red light irradiation by LC-MS analysis

Structure (SMILES)	IC50 (HeLa [1])	Drug metabolism [2]	Drug metabolism [3]	Drug metabolism [4]	Drug metabolism [5]	Activity (HeLa [6])	Drug metabolism (HeLa [1]; time 75.5 hrs)	Drug metabolism [7]
COc1ccc(/C=C\c2cc(OC)c(OC)c(OC)c2)cc1OC(=O)/C=C/N1CCC(COC(=O)CN2C(=S)c3cc4ccc(N(C)C)cc4cc3C2=S)CC1	0.0145 µM	50%	Metabolite_Notdetected	< 20%				
CC(=O)O[C@H]1C(=O)[C@@]2(C)[C@H]([C@H](OC(=O)c3ccccc3)[C@]3(O)C[C@H](OC(=O)[C@H](OC(=O)/C=C/N4CCC(COC(=O)CN5C(=S)c6cc7ccc(N(C)C)cc7cc6C5=S)CC4)[C@@H](NC(=O)c4ccccc4)c4ccccc4)C(C)=C1C3(C)C)[C@]1(OC(C)=O)CO[C@@H]1C[C@@H]2O	0.0072 µM	80%	Metabolite_Notdetected		Metabolite_Detected	inactive		
CC(=O)O[C@H]1C(=O)[C@@]2(C)[C@H]([C@H](OC(=O)c3ccccc3)[C@]3(O)C[C@H](OC(=O)[C@H](O)[C@@H](NC(=O)c4ccccc4)c4ccccc4)C(C)=C1C3(C)C)[C@]1(OC(C)=O)CO[C@@H]1C[C@@H]2O [PACLITAXEL]	0.0132 µM							
CCc1c2c(nc3ccc(OC(=O)/C=C/N4CCC(COC(=O)CN5C(=S)c6cc7ccc(N(C)C)cc7cc6C5=S)CC4)cc13)-c1cc3c(c(=O)n1C2)COC(=O)[C@]3(O)CC	0.084 µM	50%	Metabolite_Notdetected	< 20%				
CC(=O)O[C@H]1C(=O)[C@@]2(C)[C@H]([C@H](OC(=O)c3ccccc3)[C@]3(O)C[C@H](OC(=O)[C@H](OC(=O)/C=C/N4CCC(COC(=O)CN5C(=O)c6cc7ccc(N(C)C)cc7cc6C5=O)CC4)[C@@H](NC(=O)c4ccccc4)c4ccccc4)C(C)=C1C3(C)C)[C@]1(OC(C)=O)CO[C@@H]1C[C@@H]2O							Metabolite not detected	Metabolite_Notdetected
